Patent publication US8420670B2 (Abbott Laboratories, priority 2007, dated 2013)
Counter-ions that a name gives are not always drawn.

Tests used:
human GlyT1c transporter = biological target: T1, human GlyT1c transporter (Homo sapiens, UniProt P48067); assay: [3H]-(R)-NPTS radioligand binding assay using recombinant hGlyT1 expressing cell membranes; settings: 0.5 nM [3H]-(R)-NPTS, apparent Ki via Cheng-Prusoff, read-out: [3H]-(R)-NPTS bindung Ki
T1 construct: expressed in transfected cells; host or cells: recombinant hGlyT1-expressing cells
T1 sequence (P48067 1-706): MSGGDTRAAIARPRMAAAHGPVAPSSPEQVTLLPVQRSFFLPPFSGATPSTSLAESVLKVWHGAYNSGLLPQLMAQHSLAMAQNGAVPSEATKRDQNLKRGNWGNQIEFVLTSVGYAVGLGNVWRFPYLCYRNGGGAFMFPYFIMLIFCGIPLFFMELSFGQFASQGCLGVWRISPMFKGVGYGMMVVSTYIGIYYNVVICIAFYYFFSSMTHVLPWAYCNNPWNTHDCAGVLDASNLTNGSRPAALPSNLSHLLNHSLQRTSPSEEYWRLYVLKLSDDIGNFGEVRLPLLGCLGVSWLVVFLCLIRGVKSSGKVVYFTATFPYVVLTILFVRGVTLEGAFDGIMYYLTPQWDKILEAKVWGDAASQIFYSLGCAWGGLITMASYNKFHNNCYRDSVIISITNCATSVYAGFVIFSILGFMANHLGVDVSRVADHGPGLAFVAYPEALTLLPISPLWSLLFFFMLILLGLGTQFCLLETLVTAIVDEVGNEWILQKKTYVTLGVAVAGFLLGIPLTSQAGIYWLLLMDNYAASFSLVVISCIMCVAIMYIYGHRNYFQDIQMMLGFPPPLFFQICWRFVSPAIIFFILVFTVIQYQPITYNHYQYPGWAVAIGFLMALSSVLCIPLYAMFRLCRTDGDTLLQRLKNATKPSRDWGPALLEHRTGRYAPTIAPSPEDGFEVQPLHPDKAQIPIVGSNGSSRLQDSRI
Description: 2. [^3H]-(R)-NPTS Radioligand Binding Assays using Recombinant hGlyT1 Expressing Cell Membranes:
Radioligand binding to human GlyT1c transporter-expressing membranes was measured in duplicate in a total volume of 200 μl in 96-well plates. To 100 μl of membrane suspension (yielding a final membrane protein concentration of 50 μg/ml) in assay buffer (120 mM NaCl, 2 mM KCl, 10 mM Hepes, 1 mM MgCl2, 1 mM CaCl2, pH 7.5) […] of [^3H]-(R)NPTS (0.5 nM final) were added in assay buffer. For competition experiments 10 μl of buffer or unlabeled compound solution obtained from dilution series of test compounds in DMSO followed. An intermediate 1:10 dilution in assay buffer yielded a final DMSO concentration of 1%. Non-specific binding was determined in the presence of 10 μM Org24598 (or its racemate Org24461) for [^3H]-(R)-NPTS. After incubation at room temperature for 1 h, the incubation mixture was harvested (Tomtec Mach III U Harvester) through 96-well GF/B filter plates (PerkinElmer), presoaked for 1 h with 40 μl per well of 0.1% polyethylene-imine (PEI). After washing twice with ice-cold 50 mM Tris-HCl pH 7.4 buffer, drying and addition of 35 μl scintillator (BetaplateScint, PerkinElmer) per well followed. The radioactivity was determined by liquid scintillation spectrometry in a MicroBeta (PerkinElmer) plate counter.
Data analysis: For binding of [^3H]-(R)-NPTS to cell membranes, the calculation of Kd and Bmax values from the saturation binding assays and the IC50 values from the displacement binding was performed by iterative non-linear regression analysis adapted from the ‘Ligand’ program (Munson and Rodbard, 1980). Radioligand displacement curves in absence or in presence of increasing concentrations of tested compounds were fitted using a one-site fit and the apparent Ki values were calculated from the IC50 values using the Cheng-Prusoff equation (Cheng and Prusoff 1973).

Human GlyT1c = biological target: T2, Human GlyT1c (Homo sapiens, UniProt P48067); assay: Glycine uptake in recombinant hGlyT1 expressing cells; type: cell-based; settings: hGlyT1c_5_CHO cells; [3H]-glycine uptake, 60-120 min
T2 construct: expressed in transfected cells; host or cells: CHO (hGlyT1c_5_CHO clone)
T2 sequence (P48067 1-706): T1 sequence (P48067 1-706)
Description: 1. Glycine Uptake in Recombinant hGlyT1 Expressing Cells:
Human GlyT1c expressing recombinant hGlyT1c—5_CHO cells were plated at 20,000 cells per well in 96 well Cytostar-T scintillation microplates (Amersham Biosciences) and cultured to sub-confluency for 24 h. For glycine uptake assays the culture medium was aspirated and the cells were washed once with 100 μl HBSS (Gibco BRL, #14025-050) with 5 mM L-Alanine (Merck #1007). 80 μl HBSS buffer were added, followed by 10 μl inhibitor or vehicle (10% DMSO) and 10 μl [^3H]-glycine (TRK71, Amersham Biosciences) to a final concentration of […] for initiation of glycine uptake. The plates were placed in a Wallac Microbeta (PerkinElmer) and continuously counted by solid phase scintillation spectrometry during up to 3 hours. Nonspecific uptake was determined in the presence of 10 μM Org24598. IC50 calculations were made by four-parametric logistic nonlinear regression analysis (GraphPad Prism) using determinations within the range of linear increase of [^3H]-glycine incorporation between 60 and 120 min.

| Ki (human GlyT1c transporter) [nM] | IC50 (Human GlyT1c) [nM] | SMILES |
| --- | --- | --- |
| ≤ 10000 | ≤ 10000 | COc1cccc2c(NC(CNC(C)C)c3ccccc3)cc(C)nc12 (stereo not drawn) [Example 79, N*2*-Isopropyl-N*1*-(8-methoxy-2-methylquinolin-4-yl)-1-phenylethane-1,2-diamine] |
| ≤ 1000 | ≤ 10000 | COc1cccc2c(NC(CNCc3ccccc3)c3ccccc3)cc(C)nc12 (stereo not drawn) [Example 78, N*2*-Benzyl-N*1*-(8-methoxy-2-methylquinolin-4-yl)-1-phenylethane-1,2-diamine] |
| ≤ 100 | ≤ 1000 | Cc1cc(NCc2ccc(Cl)c(Cl)c2)c2cccc(Cl)c2n1 [Example 81, (8-Chlor-2-methylquinolin-4-yl)-(3,4-dichlorobenzyl)-amine] |
| ≤ 10000 | ≤ 10000 | C=CCN1CCCC[C@H]1[C@@H](Nc1cc(C)nc2c(OCCNS(C)(=O)=O)cccc12)c1ccccc1 [Example 35, N-[2-(4-{[(S)—((S)-1-Allylpiperidin-2-yl)-phenylmethyl]-amino}-2-methylquinolin-8-yloxy)ethyl]methanesulfonamide] |
| ≤ 10000 | ≤ 100000 | CN(C)c1cc(NCc2ccccc2)c2ccccc2n1 [Example 94, N*4*-Benzyl-N*2*,N*2*-dimethylquinoline-2,4-diamine] |
| ≤ 1000 | ≤ 100000 | Cc1cc(NCc2ccc(Cl)c(Cl)c2)c2cccc(S(=O)(=O)Nc3ccc(Cl)cc3)c2n1 [Example 4, 4-(3,4-Dichlorobenzylamino)-2-methylquinoline-8-sulfonic (4-chlorophenyl)-amide] |
| ≤ 1000 | ≤ 10000 | COc1cccc2c(NC(c3ccc(Cl)cc3)C3CC3)cc(C)nc12 (stereo not drawn) [Example 72, [(4-Chlorophenyl)-cyclopropylmethyl]-(8-methoxy-2-methylquinolin-4-yl)-amine] |
| ≤ 100 | ≤ 1000 | CCCOc1cccc2c(NCc3ccc(Cl)c(Cl)c3)cc(C)nc12 [Example 43, (3,4-Dichlorobenzyl)-(2-methyl-8-propoxyquinolin-4-yl)-amine] |
| ≤ 10000 | ≤ 10000 | COc1cccc2c(NC(CN3CCOCC3)c3ccccc3)cc(C)nc12 (stereo not drawn) [Example 62, (8-Methoxy-2-methylquinolin-4-yl)-(2-morpholin-4-yl-1-phenyl)-ethylamine] |
| ≤ 1000 | ≤ 1000 | Cc1cc(N[C@@H](c2ccccc2)[C@@H]2CCCCN2)c2ccccc2n1 [Example 60, (2-Methylquinolin-4-yl)-((S)-phenyl-(S)-piperidin-2-yl-methyl)-amine] |
| ≤ 10000 | ≤ 10000 | C=CCN1CCCC[C@H]1[C@@H](Nc1cc(C)nc2c(OCCNC(=O)OC(C)(C)C)cccc12)c1ccccc1 [Example 33, [2-(4-{[(S)—((S)-1-Allyl-piperidin-2-yl)-phenylmethyl]-amino}-2-methylquinolin-8-yloxy)ethyl]-carbamate tert-butyl ester] |
| ≤ 100 | ≤ 1000 | Cc1cc(NCc2ccc(Cl)c(Cl)c2)c2cccc(OCCNS(=O)(=O)Cc3ccccc3)c2n1 [Example 32, N-{2-[4-(3,4-Dichloro-benzylamino)-2-methylquinolin-8-yloxy]-ethyl}-C-phenyl-methanesulfonamide] |
| ≤ 10 | ≤ 1000 | Cc1cc(NCc2ccc(Cl)c(Cl)c2)c2cccc(OCCNS(=O)(=O)c3ccccc3)c2n1 [Example 23, hydrochloride] |
| ≤ 1000 | ≤ 10000 | Cc1cc(NCc2ccc(Cl)c(Cl)c2)c2cccc(S(C)(=O)=O)c2n1 [Example 93, (3,4-Dichlorobenzyl)-(8-methanesulfonyl-2-methylquinolin-4-yl)-amine] |
| ≤ 100 | ≤ 1000 | Cc1cc(NCc2ccc(Cl)cc2Cl)c2cccc(OCCNS(=O)(=O)CC(C)C)c2n1 [Example 39, 2-Methylpropane-1-sulfonic {2-[4-(2,4-dichlorobenzylamino)-2-methylquinolin-8-yloxy]-ethyl}-amide] |
| ≤ 1 | ≤ 100 | COc1cccc2c(N[C@H](CN(C)C)c3ccc(Cl)cc3)cc(C)nc12 [Example 76, (S)-1-(4-Chlorophenyl)-N*1*-(8-methoxy-2-methylquinolin-4-yl)-N*2*,N*2*-dimethylethane-1,2-diamine] |
| ≤ 1000 | ≤ 100000 | Cc1cc(NCc2ccc(Cl)c(Cl)c2)c2cccc(NC(=O)c3ccccc3)c2n1 [Example 10, N-[4-(3,4-Dichlorobenzylamino)-2-methylquinolin-8-yl]-benzamide] |
| ≤ 10000 | ≤ 100000 | C=CCN1CCCC[C@H]1[C@@H](Nc1cc(C)nc2c(OC)cccc12)c1ccccc1 [Example 53, [(S)—((S)-1-Allylpiperidin-2-yl)-phenylmethyl]-(8-methoxy-2-methylquinolin-4-yl)-amine] |
| ≤ 100 | ≤ 1000 | Cc1cc(NCc2ccc(Cl)c(Cl)c2)c2ccccc2n1 [Example 89, (3,4-Dichlorobenzyl)-(2-methylquinolin-4-yl)-amine] |
| ≤ 1000 | ≤ 1000 | COc1cccc2c(NCc3ccc(C(F)(F)F)c(Cl)c3)cc(C)nc12 [Example 80, (3-Chloro-4-trifluoromethylbenzyl)-(8-methoxy-2-methylquinolin-4-yl)-amine] |
| ≤ 10000 | ≤ 100000 | COc1cccc2c(NC(CN3CCCCC3)c3ccccc3)cc(C)nc12 (stereo not drawn) [Example 63, (8-Methoxy-2-methyl-quinolin-4-yl)-(1-phenyl-2-piperidin-1-yl)-ethylamine] |
| ≤ 1000 | ≤ 10000 | COc1cccc2c(NC(CN3CCCC3)c3ccc(Cl)cc3)cc(C)nc12 (stereo not drawn) [Example 67, [1-(4-Chloro-phenyl)-2-pyrrolidin-1-yl-ethyl]-(8-methoxy-2-methyl-quinolin-4-yl)-amine] |
| ≤ 100 | ≤ 100 | COCCOc1cccc2c(NCc3ccc(Cl)c(Cl)c3)cc(C)nc12 [Example 49, (3,4-Dichlorobenzyl)-[8-(2-methoxyethoxy)-2-methylquinolin-4-yl]-amine] |
| ≤ 100 | ≤ 100 | Cc1cc(NCc2ccc(Cl)c(Cl)c2)c2cccc(N)c2n1 [Example 5, N*4*-(3,4-Dichlorobenzyl)-2-methylquinoline-4,8-diamine] |
| ≤ 1000 | ≤ 1000 | Cc1cc(NCc2ccc(F)c(F)c2)c2cccc(C)c2n1 [Example 85, (3,4-Difluoro-benzyl)-(2,8-dimethyl-quinolin-4-yl)-amine] |
| ≤ 10000 | ≤ 10000 | COc1cccc2c(NC(c3ccccc3)c3ccc(Cl)cc3)cc(C)nc12 (stereo not drawn) [Example 64, [(4-Chlorophenyl)-phenylmethyl]-(8-methoxy-2-methylquinolin-4-yl)-amine] |
| ≤ 1000 | ≤ 10000 | Cc1cc(NCc2ccc(Cl)c(Cl)c2)c2cccc(Oc3ccccn3)c2n1 [Example 55, (3,4-Dichlorobenzyl)-[2-methyl-8-(pyridin-2-yloxy)-quinolin-4-yl]-amine] |
